In assay [1] the test system is Clostridium difficile ATCC700057. The assay can be described thus: microbe, parasite or virus in culture. In kind it is cell-based. The conditions noted are these: for MIC: Clostridioides difficile, ATCC700057, read-out: MIC (ATCC700057).
For assay [2], the system named is Clostridium perfringens ATCC13124. Nature of the assay: microbe, parasite or virus in culture. In kind it is cell-based. Particulars: ATCC13124, read-out: MIC (ATCC13124).
The subject of assay [3] is Clostridium perfringens clinical isolate (CI). Nature of the assay: microbe, parasite or virus in culture. The conditions noted are these: read-out: MIC (CI). In kind it is cell-based.
Another assay has as its system Enterococcus faecium. Nature of the assay: MIC by broth microdilution against Enterococcus faecium.
Assay [4] relates to MDR Enterococcus faecium strain (MDR). The assay can be described thus: MIC by broth microdilution against MDR Enterococcus faecium. Particulars: read-out: MIC (MDR). On the technique in general: Broth dilution looks for growth in wells or tubes with falling amounts of substance.
For assay [5], the system named is MDR Staphylococcus aureus strain (MDR). Nature of the assay: MIC by broth microdilution against MDR Staphylococcus aureus. Particulars: read-out: MIC (MDR).
For assay [6], the system named is MDR Streptococcus pneumoniae strain (MDR). Nature of the assay: MIC by broth microdilution against MDR Streptococcus pneumoniae. Particulars: read-out: MIC (MDR).
The test system of assay [7] is Staphylococcus aureus ATCC29213. Nature of the assay: MIC by broth microdilution against Staphylococcus aureus ATCC29213. Particulars: ATCC29213, read-out: MIC (ATCC29213).
The subject of assay [8] is Streptococcus pneumoniae ATCC49619. Nature of the assay: MIC by broth microdilution against Streptococcus pneumoniae ATCC49619. Particulars: ATCC49619, read-out: MIC (ATCC49619).
For a further assay, the system named is Bacillus subtilis. In kind it is cell-based.

Structures are written as SMILES. In brackets after ≈: the same amount, converted by molar mass.

As to `Nc1ccc(-c2nc3cc(-c4ccc5[nH]cnc5c4)ccc3[nH]2)cc1` [Compound 8, 4-(1H,1′H-5,5′-bibenzo[d]imidazol-2-yl)aniline], the MIC in [1] was 1 to 16 mg/L (≈ 3.07 to 49.2 µM); in [2], 17 to 64 mg/L (≈ 52.2 to 197 µM); in assay [3], 1 to 16 mg/L (≈ 3.07 to 49.2 µM); with Enterococcus faecium, 1 to 16 mg/L (≈ 3.07 to 49.2 µM); in assay [4] it was 1 to 16 mg/L (≈ 3.07 to 49.2 µM); in [5], 17 to 64 mg/L (≈ 52.2 to 197 µM). Also, the MIC in assay [6], in [7] and in assay [8] was 1 to 16 mg/L (≈ 3.07 to 49.2 µM) throughout.
In the case of `Nc1cccc(-c2nc3cc(-c4ccc5[nH]c(-c6cccc(N)c6)nc5c4)ccc3[nH]2)c1` [Compound 2, 3,3′-(1H,1′H-5,5′-bibenzo[d]imidazole-2,2′-diyl)dianiline], the MIC in assay [1] was 1 to 16 mg/L (≈ 2.4 to 38.4 µM); in assay [2], over 64 mg/L; in assay [3], over 64 mg/L; against Enterococcus faecium it was 1 to 16 mg/L (≈ 2.4 to 38.4 µM); in [4], 1 to 16 mg/L (≈ 2.4 to 38.4 µM); in assay [5] it was over 64 mg/L. Also, the MIC in assay [6], in [7] and in [8] was 1 to 16 mg/L (≈ 2.4 to 38.4 µM) each time.
Consider `COc1ccc(-c2nc3cc(-c4ccc5[nH]c(-c6ccc(OC)cc6)nc5c4)ccc3[nH]2)cc1` [Compound 7, 2,2′-bis(4-methoxyphenyl)-1H,1′H-5,5′-bibenzo[d]imidazole], for which the MIC (in assay [1]; in [2]; in assay [3]; with Enterococcus faecium; in assay [4]; in [5]) was under 1 mg/L in each case. For the same molecule, the MIC in assay [6], in assay [7] and in assay [8] was under 1 mg/L throughout.
In the case of `CNc1ccc(-c2nc3cc(-c4ccc5[nH]c(-c6ccc(NC)cc6)nc5c4)ccc3[nH]2)cc1` [Compound 6, 4,4′-(1H,1′H-5,5′-bibenzo[d]imidazole-2,2′-diyl)bis(N-methylaniline)], the MIC in [1] was 1 to 16 mg/L (≈ 2.25 to 36 µM); in [2], 1 to 16 mg/L (≈ 2.25 to 36 µM); in [3], 1 to 16 mg/L (≈ 2.25 to 36 µM); in the assay with Enterococcus faecium it was under 1 mg/L; in assay [4] it was under 1 mg/L; in assay [5], under 1 mg/L. Moreover, the MIC in assay [6], in assay [7] and in assay [8] was under 1 mg/L in each case.
Turning to `Cn1c(-c2ccc(N)cc2)nc2cc(-c3ccc4[nH]c(-c5ccc(N)cc5)nc4c3)ccc21` [Compound 5, 4,4′-(1-methyl-1H,1′H-5,5′-bibenzo[d]imidazole-2,2′-diyl)dianiline], the MIC is 1 to 16 mg/L (≈ 2.32 to 37.2 µM) in assay [1]; 1 to 16 mg/L (≈ 2.32 to 37.2 µM) in [2]; 1 to 16 mg/L (≈ 2.32 to 37.2 µM) in [3]; under 1 mg/L against Enterococcus faecium; under 1 mg/L in assay [4]; 1 to 16 mg/L (≈ 2.32 to 37.2 µM) in assay [5]. The MIC in [6] was under 1 mg/L; in assay [7], 1 to 16 mg/L (≈ 2.32 to 37.2 µM); in assay [8], under 1 mg/L.
Turning to `Cn1c(-c2ccc(N)cc2)nc2ccc(-c3ccc4[nH]c(-c5ccc(N)cc5)nc4c3)cc21` [Compound 4, 4,4′-(3′-methyl-1H,3′H-5,5′-bibenzo[d]imidazole-2,2′-diyl)dianiline], the MIC is 17 to 64 mg/L (≈ 39.5 to 149 µM) in assay [1]; over 64 mg/L in assay [2]; over 64 mg/L in [3]; 1 to 16 mg/L (≈ 2.32 to 37.2 µM) in the assay with Enterococcus faecium; under 1 mg/L in assay [4]; over 64 mg/L in assay [5]. Besides, the figures for the MIC in [6], in assay [7] and in assay [8] were 1 to 16 mg/L (≈ 2.32 to 37.2 µM), over 64 mg/L and under 1 mg/L, respectively.
In the case of `Nc1ccc(-c2nc3cc(-c4ccc5[nH]c(-c6ccc(N)nc6)nc5c4)ccc3[nH]2)cn1` [Compound 11, 5,5′-(1H,1′H-5,5′-bibenzo[d]imidazole-2,2′-diyl)dipyridin-2-amine], the MIC in assay [1] was under 1 mg/L; in assay [2] it was 17 to 64 mg/L (≈ 40.6 to 153 µM); in [3] it was over 64 mg/L; with Enterococcus faecium, 1 to 16 mg/L (≈ 2.39 to 38.2 µM); in assay [4] it was 1 to 16 mg/L (≈ 2.39 to 38.2 µM); in [5], over 64 mg/L. For the same molecule, the figures for the MIC in assay [6], in assay [7] and in [8] were under 1 mg/L, over 64 mg/L and under 1 mg/L, respectively.
Turning to `COc1ccc(-c2nc3ccc(-c4ccc5[nH]c(-c6ccccc6)nc5c4)cc3[nH]2)cc1` [Compound 10, 2′-(4-methoxyphenyl)-2-phenyl-1H,3′H-5,5′-bibenzo[d]imidazole], the MIC was under 1 mg/L in assay [1]; 1 to 16 mg/L (≈ 2.4 to 38.4 µM) in assay [2]; under 1 mg/L in assay [3]; under 1 mg/L against Enterococcus faecium; under 1 mg/L in assay [4]; under 1 mg/L in assay [5]. Moreover, the MIC in assay [6], in assay [7] and in assay [8] was under 1 mg/L in each case.
For the molecule `Nc1ccc(-c2nc3cc(-c4ccc5nc(-c6ccc(N)cc6)[nH]c5c4)ccc3[nH]2)cc1` [Compound 1, 4,4′-(1H,3′H-5,5′-bibenzo[d]imidazole-2,2′-diyl)dianiline], the MIC (in [1]; in assay [2]; in assay [3]; against Enterococcus faecium; in [4]; in assay [5]) was under 1 mg/L each time. For the same molecule, the MIC in assay [6], in assay [7] and in assay [8] was under 1 mg/L throughout.
`Nc1ccc(-c2nc3cc(-c4ccc5[nH]c(-c6ccccc6)nc5c4)ccc3[nH]2)cc1` [Compound 9, 4-(2′-phenyl-1H,1′H-5,5′-bibenzo[d]imidazol-2-yl)aniline]: the MIC was 1 to 16 mg/L (≈ 2.49 to 39.9 µM) in [1]; 17 to 64 mg/L (≈ 42.3 to 159 µM) in assay [2]; 1 to 16 mg/L (≈ 2.49 to 39.9 µM) in assay [3]; under 1 mg/L in the assay with Enterococcus faecium; under 1 mg/L in assay [4]; 1 to 16 mg/L (≈ 2.49 to 39.9 µM) in assay [5]. Further, the MIC was under 1 mg/L in [6], 1 to 16 mg/L (≈ 2.49 to 39.9 µM) in assay [7] and under 1 mg/L in assay [8].
As for `Oc1ccc(-c2nc3cc(-c4ccc5[nH]c(-c6ccc(O)cc6)nc5c4)ccc3[nH]2)cc1` [Compound 3, 4,4′-(1H,1′H-5,5′-bibenzo[d]imidazole-2,2′-diyl)diphenol], the MIC in [1] is under 1 mg/L; in assay [2], 1 to 16 mg/L (≈ 2.39 to 38.2 µM); in [3], 1 to 16 mg/L (≈ 2.39 to 38.2 µM); in the assay on Enterococcus faecium it was under 1 mg/L; in assay [4] it was under 1 mg/L; in [5], under 1 mg/L. In addition, the MIC in [6], in [7] and in assay [8] was under 1 mg/L in each case.
Consider `c1cc(-c2nc3cc(-c4ccc5[nH]c(-c6ccncc6)nc5c4)ccc3[nH]2)ccn1` [Compound 12, 2,2′-di(pyridin-4-yl)-1H,1′H-5,5′-bibenzo[d]imidazole], for which the “selectivity for Clostridium difficile” value in [1] is recorded as “highly selective for Clostridium difficile”. Besides, the MIC was under 1 mg/L in assay [1]; over 64 mg/L in assay [2]; over 64 mg/L in [3]; over 64 mg/L against Enterococcus faecium; over 64 mg/L in assay [4]; over 64 mg/L in assay [5]. For the same molecule, the results for the MIC in [6], in assay [7] and in [8] were under 1 mg/L, over 64 mg/L and under 1 mg/L, respectively. In the assay on Bacillus subtilis, the “antibacterial activity against Bacillus subtilis” value was “no significant antibacterial activity”.
